According to US20130280188A1, “SELF-TANNING COSMETIC” (KAO CORPORATION, priority 2012, published 2013):

What was measured:
[1] = biological target: T1, olfactory receptor OR5K1 (Homo sapiens, UniProt Q8NHB7); assay: Luciferase reporter gene assay of olfactory receptor response in HEK293 cells; type: cell-based; details: for Concentration-dependent response of OR5K1: 0, 3, 10, 30, 100, 300, and 1000 μM, HEK293 cells with RTP1S variant, FIG. 5
T1 construct: expressed in transfected cells; host or cells: HEK293
T1 sequence (Q8NHB7 1-308): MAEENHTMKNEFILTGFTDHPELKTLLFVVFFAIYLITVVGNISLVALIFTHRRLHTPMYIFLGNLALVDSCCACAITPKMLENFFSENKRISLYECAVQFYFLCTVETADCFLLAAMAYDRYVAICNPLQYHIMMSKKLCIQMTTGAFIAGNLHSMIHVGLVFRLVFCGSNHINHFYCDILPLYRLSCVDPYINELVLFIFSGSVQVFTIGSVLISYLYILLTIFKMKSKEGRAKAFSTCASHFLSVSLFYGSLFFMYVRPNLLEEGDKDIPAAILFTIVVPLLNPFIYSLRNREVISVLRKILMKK
Text: Human olfactory receptors were cloned based on sequence information registered in GenBank by PCR using human genomic DNA female (G1521: Promega Corporation) as a template. Each gene amplified by FCR was incorporated into pENTR vector (Invitrogen Inc.) in accordance with the manual and recombined to the NotI and AscI sites located downstream of a Flag-Rho tag sequence in a pME18S vector using the NotI and AscI sites present on the pENTR vector.
An RTP1S variant gene (SEQ ID NO: 3) encoding an RTP1S variant (SEQ ID NO: 4) was incorporated into the EcoRI and XhoI sites of a pME18S vector.
HEK293 cells expressing 373 types of human olfactory receptors were produced. A reaction solution having a composition shown in Table 2 was prepared, left to stand in a clean bench for 15 min and then was dispensed in each well of a 96 well plate (Becton, Dickinson and Company). Subsequently, HEK293 cells (100 μL, 3×10^5 cells/cm^2) were seeded in each well and cultured in an incubator at 37° C. under 5 mass % CO2 for 24 hours.
An olfactory receptor expressed in HEK293 cells couples with endogenous Gas in the cells to activate adenylate cyclase and thereby increases the amount of intracellular cAMP. In this study, the odor response was measured by luciferase reporter gene assay which monitors an increase in amount of intracellular cAMP as the luminescence value derived from a firefly luciferase gene (fluc2P-CRE-hygro). A Renilla luciferase gene was fused with the downstream of a CMV promoter (hRluc-CMV) and was also introduced to HEK293 cells as an internal standard to correct errors in gene transfer efficiency and number of cells.
The culture medium was removed from the culture produced in the above 3), and 75 μL of a solution prepared with a CD293 medium (Invitrogen Inc.) so as to contain a pyrazine derivative (1 mM 2,6-dimethylpyrazine) was added thereto. The cells were cultured in a CO2 incubator for 2.5 hours to sufficiently express the luciferase gene in the cells. The luciferase activity was measured with a Dual-Glo™ luciferase assay system (Promega Corporation) in accordance with the operating manual of the system. The fold increases were calculated by dividing the luminescence value derived from firefly luciferase induced by stimulation with the odor substances by the luminescence value in cells not stimulated with the odor substances and were used as an index of response strength.
Olfactory receptor OR5K1 (SEQ ID NO: 2) was expressed in HEK293 cells together with an RTP1S variant (SEQ ID NO: 4) by the same procedure as in Test Example 3, and the dependency of the response on the concentration (0, 3, 10, 30, 100, 300, and 1000 μM) in various pyrazine compounds was investigated. The pyrazine compounds used in this Example were pyrazine and pyrazine derivatives selected from the group consisting of 2-methylpyrazine, 2,3-dimethylpyrazine, 2,5-dimethylpyrazine, 2,3,5-trimethylpyrazine, 2,3,5,6-tetramethylpyrazine, and 2-ethylpyrazine.

[2] = biological target: T1, olfactory receptor OR5K1; assay: Antagonist activity against OR5K1 response to 2,6-dimethylpyrazine (luciferase assay, HEK293 cells); type: cell-based; details: HEK293 cells expressing OR5K1; for Receptor response-inhibiting rate: 2,6-dimethylpyrazine 1 mM and test material 300 μM (cytotoxic perfumes: 333 μM and 100 JAM); for Antagonist activity on the response of OR5K1 to pyrazine derivatives: 2,6-dimethylpyrazine 1 mM and test material 300 μM
Procedure: Antagonist activities of 174 test materials against olfactory receptor OR5K1 were investigated by examining response of OR5K1 to a pyrazine derivative.
2,6-Dimethylpyrazine (1 mM) and each of the test materials (300 μM) were added to HEK293 cells expressing olfactory receptor OR5K1 by the same procedure as in Test Example 4, and the response of the olfactory receptor to 2,6-dimethylpyrazine was measured to evaluate a change in response of the receptor due to addition of the test material. Perfumes recognized to have cytotoxicity were re-evaluated using a mixture of 333 μM of 2,6-dimethylpyrazine and 100 JAM of a test material.
The receptor response-inhibiting rate of a test material was calculated as follows. The receptor activity (X−Y) by stimulation with 2,6-dimethylpyrazine alone was determined by subtracting the luminescence value (Y) in cells to which the receptor was introduced but were not stimulated with 2,6-dimethylpyrazine from the luminescence value (X) derived from firefly luciferase induced by odor stimulation with 2,6-dimethylpyrazine alone. Similarly, the receptor activity (Z−Y) in the presence of a test material was determined by subtracting the luminescence value (Y) in cells not stimulated with 2,6-dimethylpyrazine from the luminescence value (Z) stimulated with a mixture of 2,6-dimethylpyrazine and the test material. The reduction rate of the receptor activity (Z−Y) in the presence of a test material to the receptor activity (X−Y) by stimulation with 2,6-dimethylpyrazine alone was calculated by the following computation expression:
Inhibition rate (%)={1−(Z−Y)/(X−Y)}×100,
to determine the receptor response-inhibiting rate of the test material. In the measurement, multiple independent experiments were performed in duplicate, and the average of each experiment was used.

| Concentration-dependent response of OR5K1 [1] | Response of olfactory receptor OR5K1 ([1]; 1 mM, screen of 373 types of human olfactory receptors in HEK293 cells, FIG. 4) | Antagonist activity on the response of OR5K1 to pyrazine derivatives [2] | Structure (SMILES) | Receptor response-inhibiting rate [2] |
| --- | --- | --- | --- | --- |
| concentration-dependently responded | – | – | Cc1nc(C)c(C)nc1C [2,3,5,6-tetramethylpyrazine] | – |
| concentration-dependently responded | – | – | Cc1cnc(C)c(C)n1 [2,3,5-trimethylpyrazine] | – |
| concentration-dependently responded | – | – | Cc1cnc(C)cn1 [2,5-Dimethyl pyrazine, 2,5-dimethylpyrazine] | – |
| concentration-dependently responded | responded | – | Cc1cncc(C)n1 [2,6-Dimethyl pyrazine, 2,6-dimethylpyrazine] | – |
| concentration-dependently responded | – | – | Cc1cnccn1 [2-Methyl pyrazine, 2-methylpyrazine] | – |
| – | – | antagonist activity | CCC(=CCC1CC=C(C)C1(C)C)CO (stereo not drawn) [Bangalol, 2-ethyl-4-(2,2,3-trimethyl-3-cyclopenten-1-yl)-2-buten-1-ol] | 75% or more |
| – | – | antagonist activity | CC(C=O)Cc1ccc(C(C)C)cc1 (stereo not drawn) [Cyclamen aldehyde, 2-methyl-3-(4-iso-propylphenyl)propanal] | 75% or more |
| – | – | antagonist activity | CCC=C(C)C(O)CCCCC (stereo not drawn) [Undecavertol, 4-methyl-3-decen-5-ol] | 75% or more |

Further lines, the compound ahead of its results:

| Structure (SMILES) | Concentration-dependent response of OR5K1 [1] | Response of olfactory receptor OR5K1 ([1]; 1 mM, screen of 373 types of human olfactory receptors in HEK293 cells, FIG. 4) | Antagonist activity on the response of OR5K1 to pyrazine derivatives [2] | Receptor response-inhibiting rate [2] |
| --- | --- | --- | --- | --- |
| Cc1nccnc1C [2,3-dimethylpyrazine] | concentration-dependently responded | – | – | – |
| CCc1cnccn1 [2-ethylpyrazine] | concentration-dependently responded | – | – | – |
| CC(C)CC1CC(C)(O)CCO1 (stereo not drawn) [Florosa, 4-methyl-2-(2-methylpropyl)tetrahydro-2H-4-pyranol] | – | – | no antagonist activity | Not inhibited |
| CCCCCC1C(=O)CCC1CC(=O)OC (stereo not drawn) [Methyl dihydrojasmonate, methyl dihydrojasmonate] | – | – | no antagonist activity | Not inhibited |
| CC(=O)CCc1ccc(O)cc1 [Raspberry ketone, 4-(p-hydroxyphenyl)-2-butanone] | – | – | no antagonist activity | Not inhibited |
| c1cnccn1 [pyrazine] | did not respond | – | – | – |
